Assay results published in patent publication US20030096379A1, “Method for producing tryptamine derivatives” (priority 2001, published 2003).

T1: pig kidney aromatic amino acid decarboxylase (pkAAAD) (Sus scrofa, UniProt P80041)
T1 construct: Frozen tissue was partially thawed in lysis buffer, then it was extracted and partially purified; from tissue; host or cells: pig kidney
T1 sequence (P80041 1-486): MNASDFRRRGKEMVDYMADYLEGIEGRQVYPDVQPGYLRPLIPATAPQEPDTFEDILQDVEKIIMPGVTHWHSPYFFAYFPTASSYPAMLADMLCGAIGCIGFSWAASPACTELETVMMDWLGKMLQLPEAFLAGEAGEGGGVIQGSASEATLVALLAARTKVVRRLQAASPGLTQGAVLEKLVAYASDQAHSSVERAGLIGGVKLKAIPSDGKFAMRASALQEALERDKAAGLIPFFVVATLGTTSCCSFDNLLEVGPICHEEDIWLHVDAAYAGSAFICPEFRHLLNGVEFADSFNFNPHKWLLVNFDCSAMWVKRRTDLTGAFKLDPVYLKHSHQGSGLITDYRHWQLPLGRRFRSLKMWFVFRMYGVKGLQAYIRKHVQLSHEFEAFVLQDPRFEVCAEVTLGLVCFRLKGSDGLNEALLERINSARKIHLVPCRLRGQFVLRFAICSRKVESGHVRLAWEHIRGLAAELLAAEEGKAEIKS

T2: synAAAD (synthetic gene based on pkAAAD protein sequence) (Sus scrofa, UniProt P80041)
T2 construct: made in house; host or cells: E. coli (pET-15 vector)
T2 sequence (P80041 1-486): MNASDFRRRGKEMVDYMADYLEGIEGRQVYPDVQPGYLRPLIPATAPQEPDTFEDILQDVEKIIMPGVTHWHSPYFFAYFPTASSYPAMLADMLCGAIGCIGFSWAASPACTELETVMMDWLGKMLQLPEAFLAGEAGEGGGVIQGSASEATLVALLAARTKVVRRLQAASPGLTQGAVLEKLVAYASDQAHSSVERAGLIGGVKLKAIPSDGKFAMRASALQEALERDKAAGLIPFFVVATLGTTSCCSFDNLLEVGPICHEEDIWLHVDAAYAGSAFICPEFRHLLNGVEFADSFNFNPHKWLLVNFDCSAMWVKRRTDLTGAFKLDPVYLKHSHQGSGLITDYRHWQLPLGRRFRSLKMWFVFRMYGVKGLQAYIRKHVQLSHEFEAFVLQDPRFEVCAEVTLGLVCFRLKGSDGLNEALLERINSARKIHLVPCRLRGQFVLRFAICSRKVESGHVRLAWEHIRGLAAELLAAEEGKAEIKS


Legend:
[1] = molecular target: T3, E. coli DH5α tryptophan synthase (TrpBA) (Escherichia coli, UniProt P0A879); format: biochemical; parameters: key: +: a clear ninhydrin-positive spot at the Rf of standard tryptophan derivatives after 16-65 h; (+): a weak spot in the product region; −: no product observed; NR: experiment not run; settings: indole derivative + L-serine + PLP, 37° C., 16-65 h, ninhydrin
T3 construct: made in house; host or cells: E. coli LMG194 (pBAD) or BL-21 (pET)
T3 sequence (P0A879 whole entry): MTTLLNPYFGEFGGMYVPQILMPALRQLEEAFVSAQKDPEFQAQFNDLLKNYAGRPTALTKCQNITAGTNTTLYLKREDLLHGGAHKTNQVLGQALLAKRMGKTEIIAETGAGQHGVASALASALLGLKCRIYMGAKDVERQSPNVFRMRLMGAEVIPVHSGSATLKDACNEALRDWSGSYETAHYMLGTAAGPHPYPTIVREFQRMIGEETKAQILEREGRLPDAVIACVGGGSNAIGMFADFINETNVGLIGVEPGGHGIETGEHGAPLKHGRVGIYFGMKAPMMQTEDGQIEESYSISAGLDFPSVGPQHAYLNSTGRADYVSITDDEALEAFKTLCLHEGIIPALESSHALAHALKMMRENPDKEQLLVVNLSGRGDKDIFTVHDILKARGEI
T3 sequence (P0A877 whole entry, further chain): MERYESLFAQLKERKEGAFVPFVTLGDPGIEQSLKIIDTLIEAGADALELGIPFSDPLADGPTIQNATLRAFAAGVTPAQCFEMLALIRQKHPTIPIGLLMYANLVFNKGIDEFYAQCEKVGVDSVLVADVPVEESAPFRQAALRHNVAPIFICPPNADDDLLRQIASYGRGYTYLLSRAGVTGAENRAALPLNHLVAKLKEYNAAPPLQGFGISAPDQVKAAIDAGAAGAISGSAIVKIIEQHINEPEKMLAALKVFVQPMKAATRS
Protocol: (§1) A mixture containing 2 μmole of the indole derivative, 0.05 μmole of PLP and 50 μmol of L-serine in 40 mM KPi buffer in 8% v/v ethanol water, pH 7.5, was warmed to 37° C., then enzyme solution was added to give a final volume of 1 mL. Aliquots (100 μL) were quenched at intervals of 2, 6, and 24 hours or more in microcentrifuge capsules containing 25 μL of 6 M HCl. The quenched samples were evaporated in a Savant Speed-vac. The residues were resuspended in methanol/water (1:1, 50 μL) and analyzed by TLC on Silica gel GF254 plates alongside tryptophan and tryptamine standards, eluting with CH2Cl2/EtOH/H2O/HOAc 77:20:2:1. Products were visualized first by using short-wave UV light, then with ninhydrin spray reagent (1/1/98 w/v/v ninhydrin/HOAc/EtOH) followed by heating.
(§2) Substituted indoles were incubated with L-serine, PLP and enzyme (TrpBA or TnA) prior to TLC analysis as generally described in Example 6. Serine, which can be used instead of pyruvate and ammonia for tryptophan synthesis with TnA, was employed as the 3-carbon acid because pyruvate tended to obscure the tryptophan product spots when plates were visualized with ninhydrin. TnA-catalyzed formation of tryptophan was also faster when serine was the 3-carbon donor. Reaction rates for several substrates were also estimated by HPLC.
(§3) In Table 4, “+” indicates a clear ninhydrin-positive spot at the Rf of standard tryptophan derivatives after 16-65 h; “(+)” indicates a weak spot in the product region; “−” means no product observed, “NR” means experiment not run. ESMS=electrospray mass spectrometry. Unless otherwise indicated, the mass value given represents the singly-protonated molecular ion (M+1).

tryptophanase (TnA) = molecular target: T4, tryptophanase (TnA) (Escherichia coli, UniProt P0A853); format: biochemical, E. coli; parameters: key: +: a clear ninhydrin-positive spot at the Rf of standard tryptophan derivatives after 16-65 h; (+): a weak spot in the product region; −: no product observed; NR: experiment not run; settings: indole derivative + L-serine + PLP, 37° C., 16-65 h, ninhydrin
T4 construct: made in house; host or cells: E. coli LMG194 (pBAD) or BL-21 (pET)
T4 sequence (P0A853 whole entry): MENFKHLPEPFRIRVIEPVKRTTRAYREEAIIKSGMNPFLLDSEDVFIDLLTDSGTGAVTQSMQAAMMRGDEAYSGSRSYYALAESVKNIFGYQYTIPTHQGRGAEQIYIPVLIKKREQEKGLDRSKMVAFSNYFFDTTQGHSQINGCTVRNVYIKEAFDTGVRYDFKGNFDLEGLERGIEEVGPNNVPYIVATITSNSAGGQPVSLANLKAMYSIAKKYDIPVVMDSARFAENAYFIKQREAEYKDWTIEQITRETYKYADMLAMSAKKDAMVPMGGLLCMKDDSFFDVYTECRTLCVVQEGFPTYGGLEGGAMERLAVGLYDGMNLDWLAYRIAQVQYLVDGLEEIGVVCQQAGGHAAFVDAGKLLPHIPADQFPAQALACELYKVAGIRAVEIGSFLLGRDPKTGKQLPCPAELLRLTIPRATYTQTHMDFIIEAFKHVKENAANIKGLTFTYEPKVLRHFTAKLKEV
Protocol: as §1, §2, §3

[2] = molecular target: T1, pig kidney aromatic amino acid decarboxylase (pkAAAD); test: Substrate screen for tryptophan decarboxylation, pkAAAD; format: biochemical; parameters: key: +: a clear ninhydrin-positive spot at the Rf of standard tryptophan derivatives after 16-65 h; (+): a weak spot in the product region; −: no product observed; NR: experiment not run; settings: tryptophan derivative, PLP, pH 7.5, 37° C.
[3] = molecular target: T2, synAAAD (synthetic gene based on pkAAAD protein sequence); test: Substrate screen for tryptophan decarboxylation, SynAAAD; format: biochemical; parameters: key: +: a clear ninhydrin-positive spot at the Rf of standard tryptophan derivatives after 16-65 h; (+): a weak spot in the product region; −: no product observed; NR: experiment not run; settings: tryptophan derivative, PLP, pH 7.5, 37° C.
Protocol: A mixture containing 1 μmole of the tryptophan derivative, 0.05 μmole of PLP and 50 μmol of L-serine in 40 mM pH 7.5 KPi buffer was warmed to 37° C., then enzyme solution was added to give a final volume of 1 mL. Aliquots (100 HL) were quenched at intervals and were evaporated in a Savant Speed-vac as in Example 6. For TLC analysis, CH2Cl2/EtOH/H2O/HOAc 49:49:1:1 was used as the solvent. The plates were visualized with short-wave UV light and ninhydrin as in Example 6.
HPLC techniques were used to monitor the decarboxylation of substituted tryptophans. Mass spectral analysis of the collected HPLC peaks was used to confirm the identity of several tryptamine derivatives, as shown in Table 5.

[4] = Decarboxylase activity of the enzyme preparations (Ehrlich's reagent); format: biochemical
Protocol: Tryptophan synthase activity was assayed by monitoring the increase in absorbance at 290 nm of a mixture containing serine, indole and PLP (Higgins, W., et al., Biochemistry, 1979, 18, 4827). TnA-catalyzed tryptophan synthesis was also measured by the 290 nm assay, while the tryptophan lyase reaction rate was measured by monitoring the reduction in NADH in reaction mixtures containing L-tryptophan and lactate dehydrogenase, indicating the amount of pyruvate released. Tryptophan decarboxylase was assayed colorimetrically by monitoring the sabsorbance at 580 nm produced by serotonin (AAADs) or tryptamine (TDCs) following treatment of reaction aliquots with Ehrlich's reagent (4-N,N-(dimethyl)aminobenzaldehyde in ethanolic HCl; Nakazawa, H.; Kumagi, H.; Yamada, H. Biochem Biophys. Res. Commun., 1974, 61, 75-82). Serotonin could be detected with approximately 5-fold higher sensitivity by this method as compared with tryptamine. The Ehrlich reagent assay using a microtiter plate format for simultaneous analysis of multiple enzyme samples may also be used. HPLC analysis was performed on acid-quenched reaction aliquots by using a base-deactivated C8 reversed-phase support (Shandon Hypersil BD8). HPLC analysis of acid-quenched aliquots permitted calculation of a rate ratio of 4.5 to 1 for pkAAAD-catalyzed DOPA decarboxylation relative to that of L-5-hydroxytryptophan, in good agreement with the accepted ratio of approximately 5:1. (See Sourkes, T. L. Methods Enzymol., 1987, 142, 170-178, which is incorporated herein by reference.)
A mixture (0.95 mL) containing L-5-hydroxytryptophan (2 mM), PLP (0.25 mM) and pH 7.5 KPi buffer (44 mM) was warmed to 37° C., then 50 μL of enzyme was added. Reaction aliquots were quenched in microcentrifuge capsules containing 50 μL each of 6M HCl to quench the enzyme reaction at 2, 5, and 20 min. Quenched aliquots were heated at 50° C. for 40 min with 750 μL each of Ehrlich's reagent (2:24:74 w/v/v […]: conc HCl: ethanol). Absorbance was read at 580-nm and compared with standards of serotonin (10-250 μM) or tryptamine (50 to 2000 μM).
Decarboxylase enzyme activity was determined using L-5-hydroxytryptophan as the substrate unless otherwise stated.

[5] = Table 2, L-5-hydroxytryptophan as substrate

Row | Molecule | TrpBA (tryptophan product spot, TLC analysis) [1] | TnA (tryptophan product spot, TLC analysis) (tryptophanase (TnA)) | also measured
1 | Nc1cccc2[nH]ccc12 [4-amino-] | + | + | 
2 | N#Cc1ccc2[nH]ccc2c1 [5-cyano-] | − | − | 
3 | indoxyl acetate [4-acetoxy-[indoxyl acetate]] | + | + | 
4 | Clc1ccc2cc[nH]c2c1 [6-chloroindole] | − | + | 
5 | NC(Cc1c[nH]c2ncccc12)C(=O)O (racemic) [DL-7-aza-trp] |  |  | pkAAAD (decarboxylation substrate screen) [2]: −; SynAAAD (decarboxylation substrate screen) [3]: −
6 | O=[N+]([O-])c1ccc2[nH]ccc2c1 [5-nitro-] | − | − | 
7 | COc1ccc2cc[nH]c2c1 [6-methoxyindole] | + | (+) | 
8 | N[C@@H](Cc1c[nH]c2ccc(CO)cc12)C(=O)O [L-5-(hydroxymethyl)-trp] |  |  | SynAAAD (decarboxylation substrate screen) [3]: −
9 | Clc1cccc2cc[nH]c12 [7-chloro] | + | − | 
10 | O=C(O)c1cc2cc(Br)ccc2[nH]1 [5-bromoindole-2-carboxylic acid] | − |  | 
11 | Clc1ccc2[nH]ccc2c1 [5-chloro-] | + | + | 
12 | COc1ccc2[nH]cc(CC(N)C(=O)O)c2c1 (racemic) [DL-5-methoxy-trp] |  |  | SynAAAD (decarboxylation substrate screen) [3]: (+)
13 | Fc1ccc2cc[nH]c2c1 [6-fluoroindole] | + | (+) | 
14 | O=[N+]([O-])c1cccc2[nH]ccc12 [4-nitro-] | − | − | 
15 | Oc1cccc2[nH]ccc12 [4-hydroxy] | + | + | 
16 | Cc1ccc2[nH]c(C)cc2c1 [2,5-dimethyl-] | + | − | 
17 | O=C(O)c1ccc2[nH]ccc2c1 [Indole-5-carboxylic acid] | − | − | 
18 | COc1ccc2[nH]c(C)cc2c1 [5-methoxy-2-methyl-] | + | − | 
19 | Oc1ccc2[nH]ccc2c1 [5-hydroxy-] | + | + | 
20 | Nc1ccc2[nH]ccc2c1 [5-amino-] | − | − | 
21 | synAAAD: enzyme from synthetic gene optimized for E. coli expression, based on the pkAAAD protein sequence (protein, UniProt P80041 1-486, looked up, codon-optimized synthetic gene) Aromatic-L-amino-acid …: MNASDFRRRGKEMVDYMADYLEGIEGRQVYPDVQPGYLRPLIPATAPQEPDTFEDILQDVEKIIMPGVTHWHSPYFFAYFPTASSYPAMLADMLCGAIGCIGFSWAASPACTELETVMMDWLGKMLQLPEAFLAGEAGEGGGVIQGSASEATLVALLAARTKVVRRLQAASPGLTQGAVLEKLVAYASDQAHSSVERAGLIGGVKLKAIPSDGKFAMRASALQEALERDKAAGLIPFFVVATLGTTSCCSFDNLLEVGPICHEEDIWLHVDAAYAGSAFICPEFRHLLNGVEFADSFNFNPHKWLLVNFDCSAMWVKRRTDLTGAFKLDPVYLKHSHQGSGLITDYRHWQLPLGRRFRSLKMWFVFRMYGVKGLQAYIRKHVQLSHEFEAFVLQDPRFEVCAEVTLGLVCFRLKGSDGLNEALLERINSARKIHLVPCRLRGQFVLRFAICSRKVESGHVRLAWEHIRGLAAELLAAEEGKAEIKS |  |  | Crude specific activity [4, 5]: 0.18 units/mg; Purified specific activity [4, 5]: 0.3 Units/mg; Crude specific activity ([4]; Table 3, decarboxylases): 0.18 units/mg; specific activity in crude extracts ([4]; crude extracts): 0.1-0.2 units/mg
22 | pkAAAD: aromatic amino acid decarboxylase extracted from pig kidney tissue, E.C. 4.1.1.28 (protein, UniProt P80041 1-486, looked up) Aromatic-L-amino-acid …: MNASDFRRRGKEMVDYMADYLEGIEGRQVYPDVQPGYLRPLIPATAPQEPDTFEDILQDVEKIIMPGVTHWHSPYFFAYFPTASSYPAMLADMLCGAIGCIGFSWAASPACTELETVMMDWLGKMLQLPEAFLAGEAGEGGGVIQGSASEATLVALLAARTKVVRRLQAASPGLTQGAVLEKLVAYASDQAHSSVERAGLIGGVKLKAIPSDGKFAMRASALQEALERDKAAGLIPFFVVATLGTTSCCSFDNLLEVGPICHEEDIWLHVDAAYAGSAFICPEFRHLLNGVEFADSFNFNPHKWLLVNFDCSAMWVKRRTDLTGAFKLDPVYLKHSHQGSGLITDYRHWQLPLGRRFRSLKMWFVFRMYGVKGLQAYIRKHVQLSHEFEAFVLQDPRFEVCAEVTLGLVCFRLKGSDGLNEALLERINSARKIHLVPCRLRGQFVLRFAICSRKVESGHVRLAWEHIRGLAAELLAAEEGKAEIKS |  |  | Crude specific activity [4, 5]: 0.05 units/mg; Purified specific activity [4, 5]: 0.2 Units/mg; Crude specific activity ([4]; Table 3, decarboxylases): 0.05 units/mg
